Laboratory results reported in patent US20210386367A1, “DEVICES AND SYSTEMS FOR GASTROINTESTINAL MICROBIOME DETECTION AND MANIPULATION” (Progenity, Inc., priority 2018, published 2021).
Converted amounts (≈) assume the structure as drawn. Where two headings read alike, the source gives them in different places.

Key:
Assay type in all cases: cell-based
[1] = system: Streptococcus agalactiae; test: Broth microdilution MIC, 20 clinical isolates; settings: Streptococcus agalactiae
Method: (§1) Minimal inhibitory concentration (MIC) values were determined by broth microdilution or agar dilution in accordance with guidelines from the Clinical and Laboratory Standards Institute (CLSI; (1) “Methods for Dilution Antimicrobial Susceptibility Tests for Bacteria That Grow Aerobically; Approved Standard; 11th ed.” CLSI standard M07-A11, 2018; (2) “Performance Standards for Antimicrobial Susceptibility Testing; Twenty-Eighth Informational Supplement,” CLSI document M100-S28, 2018; and (3) “Methods for Antimicrobial Susceptibility Testing of Anaerobic Bacteria; Approved Standard—Eighth Edition,” CLSI document M11-A8, 2012).
(§2) Tested aerobically by broth microdilution: • Escherichia coli, n=50 • Klebsiella spp., n=50 • Pseudomonas aeruginosa, n=50 • Streptococcus spp., n=50 • Staphylococcus aureus, n=50 • Enterococcus faecalis, n=50 • Enterobacter aerogenes, n=50 • Proteus mirabilis, n=50
(§3) Broth microdilution testing of aerobic bacteria was conducted in cation-adjusted Mueller Hinton broth (MHBII). For testing streptococci, lysed horse blood (LHB) was added to MHBII broth at a final concentration of 3%. Where LHB was used, it was added after filtering.
(§4) Broth microdilution susceptibility testing in 96-well microplates was conducted in accordance with CLSI methods (1) and (2). Automated liquid handlers were used to conduct serial dilutions and liquid transfers, including the Multidrop 384 (Labsystems, Helsinki, Finland), Biomek 2000, and the Biomek FX (Beckman Coulter, Fullerton, Calif.). All wells in columns 2 through 12 of a standard 96-well microdilution plate (Costar 3795) were filled with 150 μL of the appropriate diluent. Then, 300 μL of the test agents were added to the wells of column 1 of the plates at 100× the highest final concentration to be tested. Serial two-fold dilutions were made across the rows through column 11 using the Biomek 2000. The wells of column 12 contained no drug and served as the growth control wells. This plate served as the “mother plate” from which MIC assay plates or “daughter plates” were made.
(§5) The daughter plates were loaded with 190 μL per well of the appropriate medium using the Multidrop 384. The daughter plates were created using the Biomek FX which transferred 2 μL of drug solution from each well of a mother plate to each corresponding well of the daughter plate in a single step. A standardized inoculum of each test organism was prepared per CLSI methods (1) to equal a 0.5 McFarland standard, followed by a dilution of 1:20 for aerobes and 1:10 for anaerobes. The plates were then inoculated with 10 μL of the diluted inoculum using the Biomek 2000 from low to high drug concentration, resulting in a final concentration of approximately 5×10^5 CFU/mL per well. An un-inoculated plate was incubated in parallel for each medium for the purpose of assessing solubility of the drug in the test media.
(§6) Inoculated plates were stacked 3 or 4 high, covered with a sterile lid on the top plate, placed into boxes with CO2 planchets (streptococci) or plastic bags (all other isolates). Plates were incubated at 35° C. for 16-24 hr in ambient air for aerobes or for 42-48 hr in the anaerobic environment of the Bactron II anaerobe chamber (Sheldon Manufacturing Co.; Cornelius, Oreg.). Following incubation, the microplates were removed from the incubator and viewed from the bottom using a plate viewer. The MIC values were read and recorded as the lowest concentration of drug that inhibited visible growth of the organism as per CLSI methods (1) and (2).

[2] = system: Streptococcus spp.; test: Broth microdilution MIC, 54 clinical isolates
Method: as §1, §2, §3, §4, §5, §6

[3] = system: Prevotella spp. clinical isolates; test: MIC distribution against clinical isolates
[4] = system: Bacteroides non fragilis clinical isolates; test: MIC distribution against clinical isolates; settings: 29 Bacteroides non-fragilis isolates
[5] = system: Streptococcus pyogenes; test: Broth microdilution MIC, 19 clinical isolates
Method: as §1, §2, §3, §4, §5, §6

[6] = system: Streptococcus spp. clinical isolates; test: MIC distribution against clinical isolates; settings: 54 Streptococcus spp. isolates
Source text: (n=19 S. pyogenes, n=20 S. agalactiae and n=20 Viridans group Streptococcus) clinical isolates (μg/mL).
As used herein, “minimum inhibitory concentration” or “MIC” refers to the lowest concentration of an antimicrobial agent, for example, an antimicrobial agent as described herein, required to inhibit the growth of an organism. […] “MIC90” represents the MIC value at which ≥90% of the strains within a test population are inhibited; the 90th percentile.
Many susceptibility testing methods are known in the art and can be used as described herein (see, e.g., Jorgensen and Ferraro (2009) Clinical Infectious Diseases 49:1749-1755; and Maurer et al. (2017) Infectious Disease Reports 9:6839; the entire contents of each of the foregoing are incorporated herein by reference). For example, antimicrobial susceptibility can be determined using conventional culture based methods such as the broth or agar dilution test. In these dilution tests, the bacterial isolate of interest is inoculated onto different media that include serial dilutions of an antimicrobial agent, and incubated under appropriate conditions (e.g., overnight at 37° C.) to allow for growth to occur. Following the incubation period, the media is examined to determine bacterial growth. The lowest concentration of antibiotic that prevents growth represents the minimal inhibitory concentration (MIC). Broth dilution tests can be miniaturized and mechanized allowing for reproducibility and high throughput.

[7] = 54 Streptococcus spp. clinical isolates
[8] = MIC 0.5 μg/mL, 30 Prevotella spp. isolates
[9] = MIC 4 μg/mL, 30 Prevotella spp. isolates
[10] = MIC 8 μg/mL, 30 Prevotella spp. isolates
[11] = MIC 16 μg/mL, 30 Prevotella spp. isolates
[12] = MIC 32 μg/mL, 30 Prevotella spp. isolates
[13] = MIC 64 μg/mL, 30 Prevotella spp. isolates

## CO/N=C(\C(=O)N[C@@H]1C(=O)N2C(C(=O)O)=C(CSc3nc(=O)c(=O)[nH]n3C)CS[C@H]12)c1csc(N)n1 [ceftriaxone]
[1]; read-out: MIC50
  MIC50: 0.06 µg/mL (≈ 0.108 µM)
[1]; read-out: MIC90
  MIC90: 0.06 µg/mL (≈ 0.108 µM)
[2]
  isolates susceptible: 100%
[2]; [7]
  MIC50: 0.03 µg/mL (≈ 0.0541 µM)
  MIC90: 0.12 µg/mL (≈ 0.216 µM)
  MIC range: 0.008 to 1 µg/mL
[2]; 54 Streptococcus spp. clinical isolates, MXF by FDA breakpoints
  % S: 100%
[2]; Streptococcus, read-out: MIC50
  MIC50: 0.03 µg/mL (≈ 0.0541 µM)
[2]; Streptococcus, read-out: MIC90
  MIC90: 0.12 µg/mL (≈ 0.216 µM)
[2]; modal MIC, 54 Streptococcus spp. clinical isolates
  Mode: 0.06 µg/mL
[3]
  Cumulative percentage of isolates inhibited at MIC: 100.0%
  Number of test isolates at MIC: 3
[3]; [8]
  Cumulative percentage of isolates inhibited at MIC: 20.0%
  Number of test isolates at MIC: 1
[3]; [9]
  Cumulative percentage of isolates inhibited at MIC: 33.3%
  Number of test isolates at MIC: 4
[3]; [10]
  Cumulative percentage of isolates inhibited at MIC: 36.7%
  Number of test isolates at MIC: 1
[3]; [11]
  Cumulative percentage of isolates inhibited at MIC: 46.7%
  Number of test isolates at MIC: 3
[3]; [12]
  Cumulative percentage of isolates inhibited at MIC: 66.7%
  Number of test isolates at MIC: 6
[3]; [13]
  Cumulative percentage of isolates inhibited at MIC: 90.0%
  Number of test isolates at MIC: 7
[4]; MIC 1 μg/mL
  Cumulative percentage of isolates inhibited at MIC: 3.4%
  Number of test isolates at MIC: 1
[4]; MIC 2 μg/mL
  Cumulative percentage of isolates inhibited at MIC: 6.9%
  Number of test isolates at MIC: 1
[4]; MIC 4 μg/mL
  Cumulative percentage of isolates inhibited at MIC: 13.8%
  Number of test isolates at MIC: 2
[4]; MIC 16 μg/mL
  Cumulative percentage of isolates inhibited at MIC: 24.1%
  Number of test isolates at MIC: 3
[4]; MIC 32 μg/mL
  Cumulative percentage of isolates inhibited at MIC: 27.6%
  Number of test isolates at MIC: 1
[4]; MIC 64 μg/mL
  Cumulative percentage of isolates inhibited at MIC: 34.5%
  Number of test isolates at MIC: 2
[5]
  % S: 100%
  MIC range: 0.015 to 0.06 µg/mL
  Mode: 0.015 µg/mL
[5]; Streptococcus pyogenes, read-out: MIC50
  MIC50: 0.015 µg/mL (≈ 0.027 µM)
[5]; Streptococcus pyogenes, read-out: MIC90
  MIC90: 0.03 µg/mL (≈ 0.0541 µM)
[6]; MIC 0.008 μg/mL
  Cumulative percentage of isolates inhibited at MIC: 1.9%
  Number of test isolates at MIC: 1
[6]; MIC 0.015 μg/mL
  Cumulative percentage of isolates inhibited at MIC: 35.2%
  Number of test isolates at MIC: 18
[6]; MIC 0.03 μg/mL
  Cumulative percentage of isolates inhibited at MIC: 51.9%
  Number of test isolates at MIC: 9
[6]; MIC 0.06 μg/mL
  Cumulative percentage of isolates inhibited at MIC: 87.0%
  Number of test isolates at MIC: 19
[6]; MIC 0.5 μg/mL
  Cumulative percentage of isolates inhibited at MIC: 98.1%
  Number of test isolates at MIC: 1
[6]; MIC 1 μg/mL
  Cumulative percentage of isolates inhibited at MIC: 100.0%
  Number of test isolates at MIC: 1
